Literature values in patent publication US7511156B2, “Analogs of Salinosporamide A” (President and Fellows of Harvard College, priority 2004, dated 2009).
Residues, ends and D or L forms follow the SMILES beside them. *: point of attachment. Cbz = O=C(OCc1ccccc1)*

Tested on: PC12 cells
Conditions: Tsubuki et al. 1993

## CC(C)C[C@@H](C=O)NC(=O)[C@H](CC(C)C)NC(=O)[C@H](CC(C)C)NC(=O)OCc1ccccc1 [benzyloxycarbonyl (Z)-Leu-Leu-leucinal] (Cbz-Leu-Leu-Leu-aldehyde)
  optimal concentration inducing neurite outgrowth: 30 nM
